# Measured values as given in US20220356147A1, “COMPOUNDS AND METHODS FOR POTENTIATING COLISTIN ACTIVITY” (University of Notre Dame du Lac, priority 2019, published 2022).
# Test system: A. baumannii 4106 (AB4106)
# Test: Broth microdilution, colistin potentiation
# Assay type: cell-based
# Conditions: compound at 1 μM
# Protocol: (§1) Broth microdilution method for measurement of colistin potentiation: Bacteria were cultured for 4 to 6 hours in CAMHB and diluted to 1.04×10^6 CFU/mL for AB 4106 and 1.96×10^6 CFU/mL for KP B9 in fresh CAMHB. To aliquots (4 mL) was added compound from stock solutions in DMSO. One aliquot was not dosed to allow measurement of the colistin MIC in the absence of compound. A 1 mL aliquot of each sample was dosed with colistin, and from this 200 μL was dispensed into the first row of a 96-well microtiter plate in which all but the final row of subsequent wells was prefilled with 100 μL of the corresponding compound dosed bacterial suspension The final row was filled with media to act as a sterility control and blank. Row one wells were mixed 6-7 times, then, 100 μL was withdrawn and transferred to row two. Row two wells were mixed 6-7 times followed by a 100 μL transfer from row two to row three. This procedure was used to serially dilute the rest of the rows of the microtiter plate, excluding the last prefilled row, which was used to measure growth in the presence of compound alone. Plates were then sealed with GLAD
# (§2) Press'n Seal and incubated under stationary conditions at 37° C. […] MIC values were determined as the minimum concentration required to achieve 90% growth inhibition compared to growth in untreated wells.
row,Compound,"Colistin MIC fold reduction, AB 4106 [fold]"
1,O=C(Nc1cc(C(F)(F)F)ccc1F)c1cc(Cl)ccc1O [Compound 28],256

# Same assay, conditions: compound at 3 μM
row,Compound,"Colistin MIC fold reduction, AB 4106 [fold]"
1,O=C(Nc1cc(C(F)(F)F)cc(C(F)(F)F)c1)c1ccccc1O [Compound 6],512
2,O=C(Nc1cc(C(F)(F)F)ccc1F)c1cc(Cl)ccc1O [Compound 28],1024

# Same assay, conditions: compound at 5 μM; colistin alone 2048 μg/mL
row,Compound,"Colistin MIC fold reduction, AB 4106 [fold]"
1,COc1ccc(Cl)cc1C(=O)Nc1cc(C(F)(F)F)cc(C(F)(F)F)c1 [Compound 2],≤ 16
2,COc1cc(NC(=O)c2cc(Cl)ccc2O)cc(OC)c1 [Compound 19],≤ 16
3,"O=C(Nc1cc(C(F)(F)F)cc(C(F)(F)F)c1)c1ccc(O)c(Cl)c1 [Compound 4, N-(3,5-bis(trifluoromethyl)phenyl)-3-chloro-4-hydroxybenzamide]",≤ 16
4,"Nc1cc(NC(=O)c2cc(Cl)ccc2O)ccc1F [Compound 36, N-(3-amino-4-fluorophenyl)-5-chloro-2-hydroxybenzamide]",≤ 16
5,O=C(Nc1cc(C(F)(F)F)cc(C(F)(F)F)c1)c1ccccc1O [Compound 6],512
6,O=C(Nc1ccc(F)cc1C(F)(F)F)c1cc(Cl)ccc1O [Compound 27],256
7,Cc1ccc(NC(=O)c2cc(Cl)ccc2O)cc1Br [Compound 32],32
8,COc1ccc(NC(=O)c2cc(Cl)ccc2O)cc1 [Compound 38],≤ 16
9,Cc1ccc(NC(=O)c2cc(Cl)ccc2O)cc1C [Compound 31],32
10,O=C(Nc1cc(C(F)(F)F)ccc1F)c1cc(Cl)ccc1O [Compound 28],1024

# Same assay, conditions: compound at 5 μM; text of b125
row,Compound,Colistin MIC against AB 4106
1,Cc1ccc(NC(=O)c2cc(Cl)ccc2O)cc1C [Compound 31],64

# Same assay, conditions: in presence of compound at 1 μM
row,Compound,Colistin MIC against AB 4106 [µg/mL]
1,O=C(Nc1cc(C(F)(F)F)ccc1F)c1cc(Cl)ccc1O [Compound 28],8

# Same assay, conditions: in presence of compound at 3 μM
row,Compound,Colistin MIC against AB 4106 [µg/mL]
1,O=C(Nc1cc(C(F)(F)F)ccc1F)c1cc(Cl)ccc1O [Compound 28],2

# Same assay, conditions: in presence of compound at 5 μM
row,Compound,Colistin MIC against AB 4106 [µg/mL]
1,O=C(Nc1cc(C(F)(F)F)ccc1F)c1cc(Cl)ccc1O [Compound 28],2

# Test system: K. pneumoniae B9 (KPB9)
# Test: Broth microdilution, colistin potentiation
# Assay type: cell-based
# Design: Colistin MIC against KPB9: unit not given here
# Conditions: compound at 5 μM
# Protocol: as §1, §2
row,Compound,Colistin MIC against KPB9
1,O=C(Nc1ccc(F)cc1C(F)(F)F)c1cc(Cl)ccc1O [Compound 27],1
2,Cc1ccc(NC(=O)c2cc(Cl)ccc2O)cc1Br [Compound 32],8
3,Cc1ccc(NC(=O)c2cc(Cl)ccc2O)cc1C [Compound 31],16

# Test system: AB 3941
# Test: Colistin potentiation, colistin-resistant isolate panel
# Assay type: cell-based, A. baumannii
# Conditions: absence of adjuvant
row,Compound,"MIC of colistin alone, AB 3941 [µg/mL]"
1,colistin [reference compound],1024

# Same assay, conditions: compound at 5 μM
row,Compound,Colistin MIC against AB 3941 [µg/mL]
1,O=C(Nc1cc(C(F)(F)F)ccc1F)c1cc(Cl)ccc1O [Compound 28],2

# Test system: AB 4119
# Test: as above
# Assay type: cell-based, A. baumannii
# Conditions: absence of adjuvant
row,Compound,"MIC of colistin alone, AB 4119 [µg/mL]"
1,colistin [reference compound],1024

# Same assay, conditions: compound at 5 μM
row,Compound,Colistin MIC against AB 4119 [µg/mL]
1,O=C(Nc1cc(C(F)(F)F)ccc1F)c1cc(Cl)ccc1O [Compound 28],1

# Test system: AB 17978 mcr-1
# Test: as above
# Assay type: cell-based, A. baumannii
# Conditions: absence of adjuvant
row,Compound,"MIC of colistin alone, AB 17978 mcr-1 [µg/mL]"
1,colistin [reference compound],64

# Same assay, conditions: compound at 5 μM
row,Compound,Colistin MIC against AB 17978 mcr-1 [µg/mL]
1,O=C(Nc1cc(C(F)(F)F)ccc1F)c1cc(Cl)ccc1O [Compound 28],0.25

# Test system: AB 4106
# Test: Broth microdilution, standalone MIC of compound
# Assay type: cell-based, A. baumannii
# Conditions: Acinetobacter baumannii, 16 h; standalone, no colistin; read-out: MIC of compound alone, AB 4106
# Protocol: Broth microdilution method for the determination of minimum inhibitory concentrations: Bacteria were cultured for 4 to 6 hours in CAMHB and subcultured to 1.04×10^6 CFU/mL for AB 4106 and 1.96×10^6 CFU/mL for KP B9 in fresh CAMHB. To aliquots (1 mL) was added compound from stock solutions in DMSO, such that the compound concentration equaled the highest concentration tested. Samples were then dispensed (200 μL) into the first row of a 96-well microtiter plate in which all but the final row of subsequent wells were prefilled with 100 μL of the untreated bacterial subculture. The final row was filled with media to act as a sterility control and blank. Row one wells were mixed 6-7 times, then, 100 μL was withdrawn and transferred to row two. Row two wells were mixed 6-7 times followed by a 100 μL transfer from row two to row three. This procedure was used to serially dilute the rest of the rows of the microtiter plate, excluding the last prefilled row, which was used to measure growth in the absence of compound. Plates were then sealed with GLAD Press'n Seal and incubated under stationary conditions at 37 C. […] MIC values were determined as the minimum concentration required to achieve 90% growth inhibition compared to growth in untreated wells.
row,Compound,MIC [µM]
1,COc1ccc(Cl)cc1C(=O)Nc1cc(C(F)(F)F)cc(C(F)(F)F)c1 [Compound 2],> 200
2,COc1cc(NC(=O)c2cc(Cl)ccc2O)cc(OC)c1 [Compound 19],> 200
3,"O=C(Nc1cc(C(F)(F)F)cc(C(F)(F)F)c1)c1ccc(O)c(Cl)c1 [Compound 4, N-(3,5-bis(trifluoromethyl)phenyl)-3-chloro-4-hydroxybenzamide]",> 200
4,"Nc1cc(NC(=O)c2cc(Cl)ccc2O)ccc1F [Compound 36, N-(3-amino-4-fluorophenyl)-5-chloro-2-hydroxybenzamide]",> 200
5,O=C(Nc1cc(C(F)(F)F)cc(C(F)(F)F)c1)c1ccccc1O [Compound 6],> 200
6,O=C(Nc1ccc(F)cc1C(F)(F)F)c1cc(Cl)ccc1O [Compound 27],> 200
7,Cc1ccc(NC(=O)c2cc(Cl)ccc2O)cc1Br [Compound 32],> 200
8,COc1ccc(NC(=O)c2cc(Cl)ccc2O)cc1 [Compound 38],> 200
9,Cc1ccc(NC(=O)c2cc(Cl)ccc2O)cc1C [Compound 31],> 200

# Same assay, conditions: standalone, no colistin; read-out: MIC of compound alone, AB 4106
row,Compound,MIC [µM]
1,O=C(Nc1cc(C(F)(F)F)ccc1F)c1cc(Cl)ccc1O [Compound 28],>200

# Test system: AB4106 and KPB9
# Test: Initial screen for colistin resistance suppression, statements in words for both strains
# Assay type: cell-based, A. baumannii and K. pneumoniae
# Conditions: compound at 5 μM
# Protocol: as §1, §2
row,Compound,"Colistin potentiation activity in words, compared to IMD-0354"
1,COc1ccc(Cl)cc1C(=O)Nc1cc(C(F)(F)F)cc(C(F)(F)F)c1 [Compound 2],abrogated activity
2,COc1cc(NC(=O)c2cc(Cl)ccc2O)cc(OC)c1 [Compound 19],bereft of activity
3,"O=C(Nc1cc(C(F)(F)F)cc(C(F)(F)F)c1)c1ccc(O)c(Cl)c1 [Compound 4, N-(3,5-bis(trifluoromethyl)phenyl)-3-chloro-4-hydroxybenzamide]",abolished activity
4,"Nc1cc(NC(=O)c2cc(Cl)ccc2O)ccc1F [Compound 36, N-(3-amino-4-fluorophenyl)-5-chloro-2-hydroxybenzamide]",Neither compound displayed significant activity
5,O=C(Nc1cc(C(F)(F)F)cc(C(F)(F)F)c1)c1ccccc1O [Compound 6],essentially equipotent activity to IMD-0354
6,COc1ccc(NC(=O)c2cc(Cl)ccc2O)cc1 [Compound 38],abolished activity
7,O=C(Nc1cc(C(F)(F)F)ccc1F)c1cc(Cl)ccc1O [Compound 28],activity equivalent to IMD-0354

# Test system: AB 3942
# Test: Colistin potentiation, colistin-resistant isolate panel
# Assay type: cell-based, A. baumannii
# Conditions: absence of adjuvant
row,Compound,"MIC of colistin alone, AB 3942 [µg/mL]"
1,colistin [reference compound],> 2048

# Same assay, conditions: compound at 5 μM
row,Compound,Colistin MIC against AB 3942 [µg/mL]
1,O=C(Nc1cc(C(F)(F)F)ccc1F)c1cc(Cl)ccc1O [Compound 28],2

# Test system: AB 4112
# Test: as above
# Assay type: cell-based, A. baumannii
# Conditions: absence of adjuvant
row,Compound,"MIC of colistin alone, AB 4112 [µg/mL]"
1,colistin [reference compound],2048

# Same assay, conditions: compound at 5 μM
row,Compound,Colistin MIC against AB 4112 [µg/mL]
1,O=C(Nc1cc(C(F)(F)F)ccc1F)c1cc(Cl)ccc1O [Compound 28],2
